According to article PMC9610285 (Pharmaceutics, 2022):

Columns and labels:
[1] = healthy volunteers, 1 mg single oral dose
[2] = cited from earlier work

For C#CCN[C@@H]1CCc2ccccc21 [rasagiline, Rasagiline], the “adverse drug reactions (AEs causally related to rasagiline intake)” value [1] is listed as “Only one AE (headache)” and the water solubility [2] is listed as “poorly water-soluble”.
